# Experimental data published in US10479784B2, “Substituted pyrazin-2-amines as inhibitors of ATR kinase” (Vertex Pharmaceuticals Incorporated, priority 2008, dated 2019).
# Biological target: full-length ATR (Homo sapiens (Human), UniProt Q13535)
# Test: ATR Inhibition Assay (radioactive-phosphate incorporation)
# Format: biochemical
# Conditions: read-out: ATR Ki
# Experimental: Compounds were screened for their ability to inhibit ATR kinase using a radioactive-phosphate incorporation assay. Assays were carried out in a mixture of 50 mM Tris/HCl (pH 7.5), 10 mM MgCl2 and 1 mM DTT. Final substrate concentrations were […] [γ-33P]ATP (3mCi 33P ATP/mmol ATP, Perkin Elmer) and 800 μM target peptide ([…]).
# Assays were carried out at 25° C. in the presence of 5 nM full-length ATR. An assay stock buffer solution was prepared containing all of the reagents listed above, with the exception of ATP and the test compound of interest. […] The plate was pre-incubated for 10 minutes at 25° C. and the reaction initiated by addition of 15 μL [γ-33P]ATP (final concentration 10 μM).
# The reaction was stopped after […] by the addition of 30 μL 0.1M phosphoric acid containing 2 mM ATP. A multiscreen phosphocellulose filter 96-well plate (Millipore, Cat no. MAPHN0B50) was pretreated with 100 μL 0.2M phosphoric acid prior to the addition of 45 μL of the stopped assay mixture. […] After drying, 100 μL Optiphase ‘SuperMix’ liquid scintillation cocktail (Perkin Elmer) was added to the well prior to scintillation counting (1450 Microbeta Liquid Scintillation Counter, Wallac).
# After removing mean background values for all of the data points, Ki(app) data were calculated from non-linear regression analysis of the initial rate data using the Prism software package (GraphPad Prism version 3.0cx for Macintosh, GraphPad Software, San Diego Calif., USA).
# Sequence of full-length ATR (Q13535 whole entry): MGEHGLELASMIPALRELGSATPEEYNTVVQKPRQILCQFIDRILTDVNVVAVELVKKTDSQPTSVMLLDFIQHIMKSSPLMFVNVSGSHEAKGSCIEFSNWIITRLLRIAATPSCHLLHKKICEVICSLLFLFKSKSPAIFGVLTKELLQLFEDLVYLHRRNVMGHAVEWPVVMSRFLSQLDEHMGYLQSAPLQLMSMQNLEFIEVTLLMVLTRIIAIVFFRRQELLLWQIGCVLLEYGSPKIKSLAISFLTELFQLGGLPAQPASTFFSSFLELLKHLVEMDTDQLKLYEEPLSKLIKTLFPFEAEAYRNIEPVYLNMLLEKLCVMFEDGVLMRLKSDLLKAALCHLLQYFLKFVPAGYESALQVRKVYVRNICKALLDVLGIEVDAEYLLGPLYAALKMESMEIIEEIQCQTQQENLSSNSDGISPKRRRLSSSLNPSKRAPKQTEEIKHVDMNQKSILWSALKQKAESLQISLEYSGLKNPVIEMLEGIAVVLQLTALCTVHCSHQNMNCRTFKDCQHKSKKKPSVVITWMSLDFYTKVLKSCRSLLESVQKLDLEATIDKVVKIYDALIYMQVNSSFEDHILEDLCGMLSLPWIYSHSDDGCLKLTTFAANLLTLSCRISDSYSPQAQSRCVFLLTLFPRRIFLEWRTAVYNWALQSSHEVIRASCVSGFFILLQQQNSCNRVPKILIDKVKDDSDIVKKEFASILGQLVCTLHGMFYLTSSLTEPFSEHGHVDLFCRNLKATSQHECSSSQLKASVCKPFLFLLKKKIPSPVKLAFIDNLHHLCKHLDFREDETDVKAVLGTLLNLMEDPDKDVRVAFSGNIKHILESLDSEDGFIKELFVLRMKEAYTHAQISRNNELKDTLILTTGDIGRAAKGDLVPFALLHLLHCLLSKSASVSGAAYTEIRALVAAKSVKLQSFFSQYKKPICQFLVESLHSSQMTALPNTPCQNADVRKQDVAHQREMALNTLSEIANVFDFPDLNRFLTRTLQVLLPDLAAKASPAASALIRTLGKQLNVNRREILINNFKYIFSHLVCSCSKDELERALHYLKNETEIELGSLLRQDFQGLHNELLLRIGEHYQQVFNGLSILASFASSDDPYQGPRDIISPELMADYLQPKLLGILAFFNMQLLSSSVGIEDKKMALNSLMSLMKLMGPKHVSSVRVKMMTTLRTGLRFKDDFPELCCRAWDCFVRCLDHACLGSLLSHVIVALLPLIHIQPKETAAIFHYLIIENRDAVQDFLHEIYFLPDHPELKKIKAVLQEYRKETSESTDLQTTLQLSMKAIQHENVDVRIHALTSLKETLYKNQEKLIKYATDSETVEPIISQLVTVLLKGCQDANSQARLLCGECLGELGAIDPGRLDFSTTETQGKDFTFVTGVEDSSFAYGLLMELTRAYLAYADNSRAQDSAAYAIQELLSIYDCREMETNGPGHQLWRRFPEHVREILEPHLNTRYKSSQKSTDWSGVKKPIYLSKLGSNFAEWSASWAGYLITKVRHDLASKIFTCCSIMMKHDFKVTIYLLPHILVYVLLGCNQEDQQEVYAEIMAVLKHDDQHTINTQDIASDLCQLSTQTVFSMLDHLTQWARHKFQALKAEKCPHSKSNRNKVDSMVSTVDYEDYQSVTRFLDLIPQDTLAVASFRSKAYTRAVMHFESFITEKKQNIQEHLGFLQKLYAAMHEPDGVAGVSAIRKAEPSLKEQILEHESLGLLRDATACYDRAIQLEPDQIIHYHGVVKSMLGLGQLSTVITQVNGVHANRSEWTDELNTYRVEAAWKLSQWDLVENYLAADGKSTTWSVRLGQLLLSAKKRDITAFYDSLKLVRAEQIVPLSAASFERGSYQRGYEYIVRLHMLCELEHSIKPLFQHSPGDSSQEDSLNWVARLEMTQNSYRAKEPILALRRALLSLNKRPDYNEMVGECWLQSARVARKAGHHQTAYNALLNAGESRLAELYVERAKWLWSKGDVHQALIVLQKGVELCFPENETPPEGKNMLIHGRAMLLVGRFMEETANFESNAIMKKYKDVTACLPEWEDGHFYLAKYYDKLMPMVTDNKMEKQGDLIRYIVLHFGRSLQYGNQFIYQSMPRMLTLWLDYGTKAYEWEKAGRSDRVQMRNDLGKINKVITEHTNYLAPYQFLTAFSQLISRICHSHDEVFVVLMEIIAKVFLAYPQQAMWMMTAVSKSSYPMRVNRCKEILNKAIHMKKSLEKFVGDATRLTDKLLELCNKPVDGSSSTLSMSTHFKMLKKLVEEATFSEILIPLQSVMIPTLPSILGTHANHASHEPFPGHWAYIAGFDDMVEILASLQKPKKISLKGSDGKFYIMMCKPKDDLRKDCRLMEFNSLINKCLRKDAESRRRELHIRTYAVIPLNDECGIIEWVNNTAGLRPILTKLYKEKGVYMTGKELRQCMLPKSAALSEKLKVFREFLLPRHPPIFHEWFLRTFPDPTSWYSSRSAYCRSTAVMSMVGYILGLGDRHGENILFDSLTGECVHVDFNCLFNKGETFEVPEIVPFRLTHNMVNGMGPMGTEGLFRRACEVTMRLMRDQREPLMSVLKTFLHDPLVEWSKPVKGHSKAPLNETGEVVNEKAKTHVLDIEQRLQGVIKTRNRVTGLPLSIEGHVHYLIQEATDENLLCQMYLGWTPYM
row,Compound,Ki
1,"COc1ccc(-c2cnc(N)c(C(=O)Nc3ccccc3)n2)cc1 [Compound I-1, 3-amino-6-(4-methoxyphenyl)-N-phenylpyrazine-2-carboxamide]",0.1 to 5 µM
2,CS(=O)(=O)c1cccc(-c2cnc(N)c(C(=O)Nc3ccccc3)n2)c1 [Compound I-3],0.1 to 5 µM
3,"Nc1ncc(-c2ccc(F)cc2)nc1C(=O)Nc1ccccc1 [Compound I-4, 3-amino-6-(4-fluorophenyl)-N-phenylpyrazine-2-carboxamide]",0.1 to 5 µM
4,"Nc1ncc(-c2ccccc2C(F)(F)F)nc1C(=O)Nc1ccccc1 [Compound I-6, 3-amino-N-phenyl-6-(2-(trifluoromethyl)phenyl)pyrazine-2-carboxamide]",0.1 to 5 µM
5,"Nc1ncc(-c2cccc(C(=O)O)c2)nc1C(=O)Nc1ccccc1 [Compound I-8, 3-(5-amino-6-(phenylcarbamoyl)pyrazin-2-yl)benzoic acid]",0.1 to 5 µM
6,"Nc1ncc(-c2cccc(F)c2)nc1C(=O)Nc1ccccc1 [Compound I-9, 3-amino-6-(3-fluorophenyl)-N-phenylpyrazine-2-carboxamide]",0.1 to 5 µM
7,"N#Cc1cccc(-c2cnc(N)c(C(=O)Nc3ccccc3)n2)c1 [Compound I-10, 3-amino-6-(3-cyanophenyl)-N-phenylpyrazine-2-carboxamide]",0.1 to 5 µM
8,"Cc1ccccc1-c1cnc(N)c(C(=O)Nc2ccccc2)n1 [Compound I-11, 3-amino-N-phenyl-6-o-tolylpyrazine-2-carboxamide]",0.1 to 5 µM
9,"Nc1ncc(-c2cccc(N3CCOCC3)c2)nc1C(=O)Nc1ccccc1 [Compound I-12, 3-amino-6-(3-morpholinophenyl)-N-phenylpyrazine-2-carboxamide]",0.1 to 5 µM
10,"Nc1ncc(-c2ccc(N3CCOCC3)cc2)nc1C(=O)Nc1ccccc1 [Compound I-13, 3-amino-6-(4-morpholinophenyl)-N-phenylpyrazine-2-carboxamide]",0.1 to 5 µM
11,"Nc1ncc(-c2ccccc2F)nc1C(=O)Nc1ccccc1 [Compound I-14, 3-amino-6-(2-fluorophenyl)-N-phenylpyrazine-2-carboxamide]",0.1 to 5 µM
12,"Nc1ncc(-c2ccccc2)nc1C(=O)Nc1ccccc1 [Compound I-15, 3-amino-N,6-diphenylpyrazine-2-carboxamide]",0.1 to 5 µM
13,"Nc1ncc(-c2ccc(CO)cc2)nc1C(=O)Nc1ccccc1 [Compound I-16, 3-amino-6-(4-(hydroxymethyl)phenyl)-N-phenylpyrazine-2-carboxamide]",0.1 to 5 µM
14,"CC(=O)c1ccc(-c2cnc(N)c(C(=O)Nc3ccccc3)n2)cc1 [Compound I-17, 6-(4-acetylphenyl)-3-amino-N-phenylpyrazine-2-carboxamide]",0.1 to 5 µM
15,"NC(=O)c1cccc(-c2cnc(N)c(C(=O)Nc3ccccc3)n2)c1 [Compound I-18, 3-amino-6-(3-carbamoylphenyl)-N-phenylpyrazine-2-carboxamide]",0.1 to 5 µM
16,"Nc1ncc(-c2cccc(C(=O)N3CCOCC3)c2)nc1C(=O)Nc1ccc(N2CCCC2)cc1 [Compound I-26, 3-amino-6-(3-(morpholine-4-carbonyl)phenyl)-N-(4-(pyrrolidin-1-yl)phenyl)pyrazine-2-carboxamide]",0.1 to 5 µM
17,"Nc1ncc(-c2ccncc2)nc1C(=O)Nc1ccccc1 [Compound I-33, 3-amino-N-phenyl-6-(pyridin-4-yl)pyrazine-2-carboxamide]",0.1 to 5 µM
18,"Nc1ncc(-c2cncnc2)nc1C(=O)Nc1ccccc1 [Compound I-40, 3-amino-N-phenyl-6-(pyrimidin-5-yl)pyrazine-2-carboxamide]",0.1 to 5 µM
19,"Nc1ncc(-c2ccco2)nc1C(=O)Nc1ccccc1 [Compound I-41, 3-amino-6-(furan-2-yl)-N-phenylpyrazine-2-carboxamide]",0.1 to 5 µM

# Results, then the compound that gave them:
row,Ki,Compound
1,0.01 to 0.1 µM,"CC(C)S(=O)(=O)c1ccc(-c2cnc(N)c(-c3nnc(-c4ccc(C(N)C(F)(F)F)cc4)o3)n2)cc1 (stereo in doubt) [IA-325, 3-[5-[4-[(1S)-1-amino-2,2,2-trifluoro-ethyl]phenyl]-1,3,4-oxadiazol-2-yl]-5-(4-isopropylsulfonylphenyl)pyrazin-2-amine]"
2,≤ 0.01 µM,"N#Cc1cnccc1-c1cnc(N)c(C(=O)Nc2ccccc2)n1 [Compound I-2, 3-amino-6-(3-cyanopyridin-4-yl)-N-phenylpyrazine-2-carboxamide]"
3,0.01 to 0.1 µM,"CS(=O)(=O)Nc1ccc(-c2cnc(N)c(C(=O)Nc3ccccc3)n2)cc1 [Compound I-5, 3-amino-6-(4-(methylsulfonamido)phenyl)-N-phenylpyrazine-2-carboxamide]"
4,0.01 to 0.1 µM,"Nc1ncc(-c2ccc(C(=O)O)cc2)nc1C(=O)Nc1ccccc1 [Compound I-7, 4-(5-amino-6-(phenylcarbamoyl)pyrazin-2-yl)benzoic acid]"
5,0.01 to 0.1 µM,"Nc1ncc(-c2ccccc2CO)nc1C(=O)Nc1ccccc1 [Compound I-19, 3-amino-6-(2-(hydroxymethyl)phenyl)-N-phenylpyrazine-2-carboxamide]"
6,0.01 to 0.1 µM,"Nc1ncc(-c2cccc(C(=O)N3CCOCC3)c2)nc1C(=O)Nc1ccccc1 [Compound I-20, 3-amino-6-(3-(morpholine-4-carbonyl)phenyl)-N-phenylpyrazine-2-carboxamide]"
7,0.01 to 0.1 µM,"N#Cc1ccc(-c2cnc(N)c(C(=O)Nc3ccccc3)n2)cc1 [Compound I-21, 3-amino-6-(4-cyanophenyl)-N-phenylpyrazine-2-carboxamide]"
8,0.01 to 0.1 µM,"CC(=O)c1cccc(-c2cnc(N)c(C(=O)Nc3ccccc3)n2)c1 [Compound I-22, 6-(3-acetylphenyl)-3-amino-N-phenylpyrazine-2-carboxamide]"
9,0.01 to 0.1 µM,"Nc1ncc(-c2ccc(C(=O)CN3CCC(O)CC3)cc2)nc1C(=O)Nc1ccccc1 [Compound I-23, 3-amino-6-(4-(2-(4-hydroxypiperidin-1-yl)acetyl)phenyl)-N-phenylpyrazine-2-carboxamide]"
10,0.01 to 0.1 µM,"CN(C)C(=O)c1ccc(-c2cnc(N)c(C(=O)Nc3ccccc3)n2)cc1 [Compound I-24, 3-amino-6-(4-(dimethylcarbamoyl)phenyl)-N-phenylpyrazine-2-carboxamide]"
11,0.01 to 0.1 µM,"CS(=O)(=O)Nc1cccc(-c2cnc(N)c(C(=O)Nc3ccccc3)n2)c1 [Compound I-25, 3-amino-6-(3-(methylsulfonamido)phenyl)-N-phenylpyrazine-2-carboxamide]"
12,0.01 to 0.1 µM,"COc1ccccc1NC(=O)c1nc(-c2cccc(C(N)=O)c2)cnc1N [Compound I-27, 3-amino-6-(3-carbamoylphenyl)-N-(2-methoxyphenyl)pyrazine-2-carboxamide]"
13,≤ 0.01 µM,"COc1ccccc1NC(=O)c1nc(-c2ccc(C(=O)N(C)C)cc2)cnc1N [Compound I-28, 3-amino-6-(4-(dimethylcarbamoyl)phenyl)-N-(2-methoxyphenyl) pyrazine-2-carboxamide]"
14,0.01 to 0.1 µM,"COc1ccccc1NC(=O)c1nc(-c2ccc3[nH]ccc3c2)cnc1N [Compound I-29, 3-amino-6-(1H-indol-5-yl)-N-(2-methoxyphenyl)pyrazine-2-carboxamide]"
15,0.01 to 0.1 µM,"COc1ccccc1NC(=O)c1nc(-c2ccco2)cnc1N [Compound I-30, 3-amino-6-(furan-2-yl)-N-(2-methoxyphenyl)pyrazine-2-carboxamide]"
16,0.01 to 0.1 µM,"Nc1ncc(-c2ccn[nH]2)nc1C(=O)Nc1ccccc1 [Compound I-31, 3-amino-N-phenyl-6-(1H-pyrazol-5-yl)pyrazine-2-carboxamide]"
17,0.01 to 0.1 µM,"Nc1ncc(-c2ccc(O)nc2)nc1C(=O)Nc1ccccc1 [Compound I-32, 3-amino-6-(6-hydroxypyridin-3-yl)-N-phenylpyrazine-2-carboxamide]"
18,0.01 to 0.1 µM,"Nc1ncc(-c2ccc(N3CCOCC3)nc2)nc1C(=O)Nc1ccccc1 [Compound I-34, 3-amino-6-(6-morpholinopyridin-3-yl)-N-phenylpyrazine-2-carboxamide]"
19,0.01 to 0.1 µM,"COc1ccccc1NC(=O)c1nc(-c2cccs2)cnc1N [Compound I-35, 3-amino-N-(2-methoxyphenyl)-6-(thiophen-2-yl)pyrazine-2-carboxamide]"
20,0.01 to 0.1 µM,"COc1ccccc1NC(=O)c1nc(-c2ccc3[nH]ncc3c2)cnc1N [Compound I-36, 3-amino-6-(1H-indazol-5-yl)-N-(2-methoxyphenyl)pyrazine-2-carboxamide]"
21,0.01 to 0.1 µM,"COc1ccccc1NC(=O)c1nc(-c2ccoc2)cnc1N [Compound I-37, 3-amino-6-(furan-3-yl)-N-(2-methoxyphenyl)pyrazine-2-carboxamide]"
22,0.01 to 0.1 µM,"COc1cc(-c2cnc(N)c(C(=O)Nc3ccccc3)n2)ccn1 [Compound I-38, 3-amino-6-(2-methoxypyridin-4-yl)-N-phenylpyrazine-2-carboxamide]"
23,0.01 to 0.1 µM,"Nc1ncc(-c2ccc3[nH]ncc3c2)nc1C(=O)Nc1ccccc1 [Compound I-39, 3-amino-6-(1H-indazol-5-yl)-N-phenylpyrazine-2-carboxamide]"
24,0.01 to 0.1 µM,"Nc1ncc(-c2ccc(C(=O)N3CCCNCC3)cc2)nc1C(=O)Nc1ccccc1 [Compound I-43, 6-(4-(1,4-diazepane-1-carbonyl)phenyl)-3-amino-N-phenylpyrazine-2-carboxamide]"
25,0.01 to 0.1 µM,"COC1CN(C(=O)c2ccc(-c3cnc(N)c(C(=O)Nc4ccccc4)n3)cc2)C1 [Compound I-44, 3-amino-6-(4-(3-methoxyazetidine-1-carbonyl)phenyl)-N-phenylpyrazine-2-carboxamide]"
